Experimental findings from patent US3932400A, “Thiazole derivatives” (Sumitomo Chemical Company, Limited, priority 1972, dated 1976) are described below.

One data set deals with β-adrenergic receptor. Nature of the data set: β-adrenergic receptor blocking activity in open chest dog. In kind it is in vivo. Conditions: relative to propranolol = 1, pentbarbital-anesthetized open chest dog; for β-adrenergic receptor blocking activity in open chest dog (propranolol = 1), DDE: depressive effect on depressor effect (DDE) induced by intravenous isoproternol; for β-adrenergic receptor blocking activity in open chest dog (propranolol = 1), DPC: depressive effect on positive chronotropic (DPC) effect induced by intravenous isoproternol; for β-adrenergic receptor blocking activity in open chest dog (propranolol = 1), DPI: depressive effect on positive inotropic (DPI) effect induced by intravenous isoproternol. How it is done: Note: A determination of β-adrenergic receptor blocking activity of test compounds in open chest dog was as follows. Thus dogs were anesthetized with pentbarbital sodium (administrated 30 - 40 mg./kg. intraveneously). Heart rate, myocardial contractile force and blood pressure were recorded with NIHON KODEN RM-150 polygraph. A depressive effect of test compounds on positive chronotropic (DPC), positive inotropic (DPI) and depressor effect (DDE) induced by isoproternol, which was injected intraveneously at a quarter interval, was determined.

The next data set deals with male mice. In kind it is in vivo. Conditions: intravenous; 10 male mice; up and down method.

The structures appear in SMILES notation.

As for `CC(C)(C)NCC(O)CSc1nc(-c2ccc(C(N)=O)s2)cs1` (stereo not shown) [Example 37, 2-(3'-t-butylamino-2'-hydroxypropylthio)-4-(5'-carbamoyl-2'-thienyl)thiazole], in the data set with β-adrenergic receptor, the “β-adrenergic receptor blocking activity in open chest dog (propranolol = 1), DDE” value is 8; the “β-adrenergic receptor blocking activity in open chest dog (propranolol = 1), DPC” value is recorded as 15; the “β-adrenergic receptor blocking activity in open chest dog (propranolol = 1), DPI” value is listed as 15. Moreover, the “Acute toxicity LD50” value in the data set with male mice came out at 86 mg/kg.

Turning to `CC(=O)Nc1ccc(OCC(O)CNC(C)C)cc1` (stereo not shown) [Practolol, reference compound], in the data set with β-adrenergic receptor, the “β-adrenergic receptor blocking activity in open chest dog (propranolol = 1), DDE” value was 0.08; the “β-adrenergic receptor blocking activity in open chest dog (propranolol = 1), DPC” value was found to be 0.5; the “β-adrenergic receptor blocking activity in open chest dog (propranolol = 1), DPI” value was 0.7.
